According to patent publication US8133471B2, “CLK-peptide and SLK-peptide” (New York University, priority 2003, dated 2012):

Legend:
[1] = test system: bFGF-induced angiogenesis in chick chorioallantoic membrane (CAM); experiment: bFGF-induced angiogenesis in the chick CAM model; assay type: in vivo
From the text: FIG. 3A, FIG. 3B, and FIG. 3C depict a chick chorioallantoic membrane (CAM) without bFGF-induced angiogenesis, a CAM following bFGF-induced angiogenesis, and a CAM treated with CLK-peptide after bFGF-induced angiogenesis, respectively.
FIG. 4 is a chart which illustrates quantification of CAM angiogenic blood vessels following bFGF-induced angiogenesis without subsequent CLK-peptide treatment and CAM angiogenic blood vessels following bFGF-induced angiogenesis with subsequent CLK-peptide treatment.
Angiogenesis was induced within the chorioallantoic membrane (CAM) of 10-day old chick embryos with bFGF. Twenty-four hours later, 8-10 of the embryos were treated with a single intravenous injection of CLK-peptide (100 ug/embryo). At the end of a 3-day incubation period, the CAM tissues were removed for analysis. […] (FIGS. 3 (a),(b),(c)) The single injection of CLK-peptide inhibited bFGF by greater than 95%. […] Eight to ten chick embryos were tested in each of the two groups, and the experiment was repeated three times for a total of 24-30 chick embryos tested.

p21CIP1 = p21CIP1 expression by Western blot in M21 cells; assay type: cell-based, human; settings: 100 μg/ml
Description: FIG. 12 Inhibition of Cellular Interactions by CLK-Peptide Enhances Expression of P21CIP1 in Human Melanoma (M21) Cells. Non-tissue culture treated 96-well plates were coated with denatured collagen type-IV (10 μg/ml). Human melanoma cells (M21) were allowed to proliferate in the presence or absence of CLK-Peptide or control peptide CTW (100 μg/ml) over a 3-day time course. Cells were then allowed to incubate for 12 hours in 1% serum-containing medium. Expression of P21 CIP1 and actin control were evaluated by Western blotting.
To examine whether the cryptic epitope recognized by CLK-peptide plays a role in cellular proliferation, in vitro proliferations assays were carried out (FIG. 13). In addition, the effects of CLK-peptide on expression of the CDK inhibitor p21^CIP1 were examined by Western blotting methods (FIG. 12). Non-tissue culture treated microtiter wells were coated with denatured collagen type-IV. Human M21 melanoma cells were resuspended in 1% RPMI in the presence or absence of CLK or control CTW-peptide (100 μg/ml). Proliferation was monitored by measuring the relative levels of mitochondrial dehydrogenase using a commercially available (WST-I) proliferation kit (Chemicon).

[2] = test system: denatured collagen type-IV; experiment: Competition ELISA, mAb HUIV26 binding to denatured collagen type-IV with or without CLK-peptide; settings: HUIV26 1 μg/ml; CLK-peptide 100 μg/ml; 2 hours 37° C.
Description: FIG. 14 Inhibition of Binding of Labeled CLK-Peptide to Denatured Collagen Type-IV by mAbs HUI77. To examine the binding specificity of the synthetic CLK-Peptide, the peptide was labeled and solid phase ELISAs were performed. Denatured collagen type-IV (10 μg/ml) was coated on microtiter wells and binding of either HRP-labeled CLK-Peptide or mAbs (mAbs HUI77 or HUIV26) was measured by ELISA at a wavelength of 490 nm. […] B. MAb HUIV26 was allowed to bind the denatured collagen in the presence or absence of CLK-Peptide.
Microtiter wells were coated with denatured collagen type-IV (1 μg/ml) overnight at 4° C., and the plates blocked with 1% BSA for 1 hour at 37° C. HUIV26 was added at 1 μg/ml and allowed to bind the denatured collagen in the presence or absence of 100 μg/ml CLK-peptide for 2 hours at 37° C. Labeled goat-anti-mouse antibody was added at 1:3000 and incubation was allowed for 1 hour at 37° C. Color solution, then a stopping solution of 4N sulfuric acid, were added and binding was quantified by measuring the O.D. at 490 nm. […] Similar results were obtained over a wide range of peptide and antibody concentrations (1 to 100 μg/ml) (data not shown).

[3] = test system: denatured collagen type-IV; experiment: Competition ELISA, mAb HUIV26 or HUI77 binding to denatured collagen with or without CLK-peptide (Example 16); settings: collagen coated at 10 μg/ml; 1:1 ratio
Description: FIG. 17 CLK-Peptide Binds to the HUI77 Cryptic Collagen Epitope. To examine the epitope bound by CLK, competition ELISAs were carried out. Microtiter wells were coated with denatured collagen type-IV (10 μg/ml), and mAb HUIV26 or HUI77 were allowed to bind the denatured collagen in the presence or absence of CLK-peptide.
ELISAs were performed to examine the binding specificity of CLK-Peptide. Denatured type-IV collagen (10 μg/ml) was coated on microtiter wells and CLK-peptide allowed to bind in the presence or absence of Mab HUI77 or Mab HUIV26 at a 1:1 ratio. HRP-labeled goat anti-mouse secondary antibodies were used to detect murine Mabs HUI77 and HUIV26, directed to distinct cryptic epitope within collagen type-IV, and the O.D. at 490 nm measured.

GL261 glioblastoma cells = experiment: GL261 proliferation, CLK-peptide combined with ionizing radiation; assay type: cell-based, murine; settings: CLK-peptide 50 μg/ml + 5.0 Gy, 3 days, P<0.050, versus control
Description: FIG. 24 CLK-Peptide Enhances Radiosensitivity of […] Glioblastoma. Percent inhibition of tumor cell proliferation was quantitated in the presence or absence of CLK-Peptide, ionizing radiation, and a combination of the two.
Microtiter wells were coated with denatured collagen type-IV (10 μg/ml). GL261 cells were resuspended in proliferation buffer containing 1% serum in the presence or absence of a sub-optimal amount of CLK-peptide or control peptide (CTW) (50 μg/ml).
The cells were added to the coated wells and allowed to incubate for 1 hour, then either untreated or irradiated with a single fraction dose of ionizing radiation (5.0 Gy). A ^60Co source (Theratron) was used to deliver a single fraction of 5 Gy. The cells, on a 30 cm^2 field, were irradiated from a distance of 80 cm with a gantry angle of 180 degrees on a solid water phantom at 0.5 cm depth.
Tumor cells were allowed to proliferate for 3 days and proliferation was quantified by measuring the relative amount of mitochondrial dehydrogenase using a WST-1 tetrazolium salt cleavage assays kit (Chemicon).

- blocking of mAb HUIV26 binding to denatured collagen type-IV [2]: did not block
- blocking of mAb HUI77 binding to denatured collagen [3]: significantly blocked
- blocking of mAb HUIV26 binding to denatured collagen [3]: did not block
Substance: H-CLKQNGGNFSLG-OH [CLK-peptide, NH2-C-L-K-Q-N-G-G-N-F-S-L-G-COOH]
- adverse effects following injection ([1]; chick embryos, 100 ug/embryo intravenous): No adverse effects
- number of branching vessels within the area of the filter disc ([1]; single intravenous injection 100 ug/embryo): dramatic reduction
- inhibition of bFGF (induced angiogenesis) ([1]; single intravenous injection 100 ug/embryo, 3-day incubation): greater than 95%
- expression of the CDK inhibitor p21CIP1 (p21CIP1): up-regulated
- increase of the antiproliferative effects of a sub-optimal dose of ionizing radiation (GL261 glioblastoma cells): approximately 5 fold
